Laboratory results from the supplement of paper PMC10627819.

Assays:
S. aureus Newman [1] = assay: fitness (endpoint OD595 vs no drug) (fraction); higher = more growth
Summary of the method: (§1)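 Fitness is computed from the optical density at which cultures reach stationary phase, divided by the robust mean of no-drug control wells. Any value above 1 is set to 1. Cultures started at OD595 0.01 in 384-well plates with TSB, LB Lennox or CY at 37 °C, and OD595 was read every 30 min for 14 h against a first-reading background.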

S. aureus DSM 20231 [2] = assay: as above
Summary of the method: as §1

S. aureus Newman [3] = assay: Bliss interaction score (quartile over a dose matrix) (fitness difference); higher = more antagonism (negative = synergy)
Summary of the method: (§2)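 The Bliss score was calculated by subtracting the expected fitness, the product of single-drug values, from the observed fitness. OD595 at entry into stationary phase, over the plate's robust no-drug mean and capped at 1, served as the fitness readout. Single-drug values were inferred from combination data, and scores are summarised by quartiles across technical, biological and donor/recipient replicates.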

S. pneumoniae D39V [4] = assay: as above
Summary of the method: as §2

B. subtilis 168 [5] = assay: as above
Summary of the method: as §2

S. aureus DSM 20231 [6] = assay: as above
Summary of the method: as §2

S. pneumoniae D39V [7] = assay: fitness (endpoint OD595 vs no drug) (fraction); higher = more growth
Summary of the method: as §1

B. subtilis 168 [8] = assay: as above
Summary of the method: as §1
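Wherever Bliss interaction score (quartile over a dose matrix) is given: first quartile when negative (synergy) and third quartile when positive (antagonism).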

CC1(C)S[C@@H]2[C@H](NC(=O)[C@H](N)c3ccc(O)cc3)C(=O)N2[C@H]1C(=O)O [Amoxicillin] + CCCCCCCCCC(=O)N[C@@H]1[C@H]([C@@H]([C@H](O[C@H]1OC2=C3C=C4C=C2OC5=C(C=C(C=C5)[C@H]([C@H]6C(=O)N[C@@H](C7=C(C(=CC(=C7)O)OC8[C@H]([C@H]([C@@H]([C@H](O8)CO)O)O)O)C9=C(C=CC(=C9)[C@H](C(=O)N6)NC(=O)[C@@H]4NC(=O)[C@@H]1C2=CC(=CC(=C2)OC2=C(C=CC(=C2)[C@H](C(=O)N[C@H](CC2=CC(=C(O3)C=C2)Cl)C(=O)N1)N)O)O)O)C(=O)O)O[C@H]1[C@@H]([C@H]([C@@H]([C@H](O1)CO)O)O)NC(=O)C)Cl)CO)O)O [Teicoplanin]
fitness, main component drawn
Conditions	first compound 0.0625 µg/mL	first compound 0.125 µg/mL	first compound 0.25 µg/mL
S. aureus DSM 20231 [2], partner 0.1562 µg/mL	0.575	0.408	0.199
S. aureus DSM 20231 [2], partner 0.3125 µg/mL	0.658	–	–
S. aureus DSM 20231 [2], partner 0.625 µg/mL	0.619	–	0.0287
S. aureus Newman [1], partner 0.1562 µg/mL	0.947	0.94	0.848
S. aureus Newman [1], partner 0.3125 µg/mL	0.898	0.913	0.815
S. aureus Newman [1], partner 0.625 µg/mL	0.823	0.853	0.73

fitness, one replicate, main component drawn
Conditions	partner 0.1562 µg/mL	partner 0.3125 µg/mL	partner 0.62 µg/mL	partner 0.625 µg/mL	partner 1.24 µg/mL	partner 2.48 µg/mL
S. aureus DSM 20231 [2], first compound 0.5 µg/mL	0.0188	0.0061	–	0.0019	–	–
S. aureus Newman [1], first compound 0.125 µg/mL	–	–	0.747	–	0.689	0.396
S. aureus Newman [1], first compound 0.25 µg/mL	–	–	0.725	–	0.785	0.491
S. aureus Newman [1], first compound 0.5 µg/mL	–	–	0.724	–	0.684	0.462

main component drawn
Conditions	Bliss interaction score
B. subtilis 168 [5]	-0.1
S. aureus DSM 20231 [6]	0.0453
S. aureus Newman [3]	0.0682
S. pneumoniae D39V [4]	-0.0856

CCN(CC)CCOC(=O)c1ccc(N)cc1 [Procaine] + CCCCCCCCCC(=O)N[C@@H]1[C@H]([C@@H]([C@H](O[C@H]1OC2=C3C=C4C=C2OC5=C(C=C(C=C5)[C@H]([C@H]6C(=O)N[C@@H](C7=C(C(=CC(=C7)O)OC8[C@H]([C@H]([C@@H]([C@H](O8)CO)O)O)O)C9=C(C=CC(=C9)[C@H](C(=O)N6)NC(=O)[C@@H]4NC(=O)[C@@H]1C2=CC(=CC(=C2)OC2=C(C=CC(=C2)[C@H](C(=O)N[C@H](CC2=CC(=C(O3)C=C2)Cl)C(=O)N1)N)O)O)O)C(=O)O)O[C@H]1[C@@H]([C@H]([C@@H]([C@H](O1)CO)O)O)NC(=O)C)Cl)CO)O)O [Teicoplanin]
fitness, main component drawn
Conditions	first compound 85.5 µg/mL	first compound 171 µg/mL	first compound 342 µg/mL
S. aureus DSM 20231 [2], partner 0.1562 µg/mL	≥ 1	≥ 1	0.992
S. aureus DSM 20231 [2], partner 0.3125 µg/mL	0.975	≥ 1	≥ 1
S. aureus DSM 20231 [2], partner 0.625 µg/mL	≥ 1	≥ 1	≥ 1
S. aureus Newman [1], partner 0.1562 µg/mL	0.996	≥ 1	0.997
S. aureus Newman [1], partner 0.3125 µg/mL	0.975	0.981	0.963
S. aureus Newman [1], partner 0.625 µg/mL	0.83	0.898	0.889

fitness, S. aureus Newman [1], one replicate, main component drawn
Conditions	first compound 85.5 µg/mL	first compound 171 µg/mL	first compound 342 µg/mL
partner 0.62 µg/mL	0.774	0.738	0.765
partner 1.24 µg/mL	0.785	0.705	0.726
partner 2.48 µg/mL	0.407	0.496	0.478

main component drawn
Conditions	Bliss interaction score
B. subtilis 168 [5]	-0.0776
S. aureus DSM 20231 [6]	0.044
S. aureus Newman [3]	0.0323
S. pneumoniae D39V [4]	-0.113

CC1(C)S[C@@H]2[C@H](NC(=O)[C@H](N)c3ccc(O)cc3)C(=O)N2[C@H]1C(=O)O [Amoxicillin] + O=C(N[C@H](CO)[C@H](O)c1ccc([N+](=O)[O-])cc1)C(Cl)Cl [Chloramphenicol]
fitness
Conditions	first compound 0.0625 µg/mL	first compound 0.125 µg/mL	first compound 0.25 µg/mL
S. aureus DSM 20231 [2], partner 0.75 µg/mL	0.446	–	0.041
S. aureus DSM 20231 [2], partner 1.5 µg/mL	0.323	0.162	0.0389
S. aureus DSM 20231 [2], partner 3 µg/mL	0.0721	0.0829	0.0294
S. aureus Newman [1], partner 0.75 µg/mL	0.724	0.718	–
S. aureus Newman [1], partner 3 µg/mL	–	0.139	–

S. aureus DSM 20231 [2], first compound 0.5 µg/mL, one replicate
Conditions	fitness
partner 0.75 µg/mL	0.0382
partner 1.5 µg/mL	0.005
partner 3 µg/mL	0.0307

Conditions	Bliss interaction score
B. subtilis 168 [5]	0.122
S. aureus DSM 20231 [6]	-0.0444
S. aureus Newman [3]	-0.108
S. pneumoniae D39V [4]	0.165

CCCCCCCCCC(=O)N[C@@H](Cc1c[nH]c2ccccc12)C(=O)N[C@H](CC(N)=O)C(=O)N[C@@H](CC(=O)O)C(=O)N[C@@H]1C(=O)NCC(=O)N[C@@H](CCCN)C(=O)N[C@@H](CC(=O)O)C(=O)N[C@H](C)C(=O)N[C@@H](CC(=O)O)C(=O)NCC(=O)N[C@H](CO)C(=O)N[C@@H]([C@H](C)CC(=O)O)C(=O)N[C@@H](CC(=O)c2ccccc2N)C(=O)O[C@@H]1C [Daptomycin] + CN[C@@H]1[C@H](O[C@H]2[C@H](O[C@H]3[C@H](O)[C@@H](O)[C@H](N=C(N)N)[C@@H](O)[C@@H]3N=C(N)N)O[C@@H](C)[C@]2(O)C=O)O[C@@H](CO)[C@H](O)[C@H]1O [Streptomycin]
fitness
Conditions	partner 1 µg/mL	partner 2 µg/mL	partner 4 µg/mL	partner 8 µg/mL
B. subtilis 168 [8], first compound 0.125 µg/mL	–	0.954	0.651	0.0465
B. subtilis 168 [8], first compound 0.25 µg/mL	–	0.977	–	0.0589
B. subtilis 168 [8], first compound 0.5 µg/mL	–	0.923	–	0.0321
S. aureus Newman [1], first compound 0.125 µg/mL	0.971	0.988	–	–
S. aureus Newman [1], first compound 0.25 µg/mL	0.964	0.985	–	–
S. aureus Newman [1], first compound 0.5 µg/mL	0.986	0.973	–	–
S. pneumoniae D39V [7], first compound 1 µg/mL	–	0.926	0.902	0.825
S. pneumoniae D39V [7], first compound 2 µg/mL	–	0.955	0.909	0.876
S. pneumoniae D39V [7], first compound 4 µg/mL	–	0.95	0.924	0.86

fitness, one replicate
Conditions	first compound 1 µg/mL	first compound 2 µg/mL	first compound 4 µg/mL
B. subtilis 168 [8], partner 2 µg/mL	0.654	–	–
B. subtilis 168 [8], partner 4 µg/mL	0.245	–	–
B. subtilis 168 [8], partner 8 µg/mL	0.0183	–	–
S. pneumoniae D39V [7], partner 16 µg/mL	0.795	0.804	0.773

Conditions	Bliss interaction score
B. subtilis 168 [5]	-0.0625
S. aureus DSM 20231 [6]	0.0838
S. aureus Newman [3]	0.0589
S. pneumoniae D39V [4]	0.103
